Laboratory results from the supplement of paper PMC10307832.

Compound: C(C(=O)C(=O)O)Br [Bromopyruvate] + CC1(C)CCC(c2ccc(Cl)cc2)=C(CN2CCN(c3ccc(C(=O)NS(=O)(=O)c4ccc(N[C@H](CCN5CCOCC5)CSc5ccccc5)c(S(=O)(=O)C(F)(F)F)c4)cc3)CC2)C1 [Navitoclax] (partner 0.5 µM)
Test: relative viability (nuclei count vs DMSO), 5 days (fraction); higher = more cells survive
Details: first compound 1 µM
In short: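 A single step with final 0.05% Triton X-100, 1% formaldehyde and 1 ug/ml Hoechst fixed the cells and stained nuclei 5 days after treatment. Lung cancer cell lines in 1536-well plates had been treated by pin tool the day after seeding with one drug alone or a fixed anchor-drug dose plus five library-drug doses (not always all listed) in √10 steps, and nuclei were counted on 4× images. Relative viability is the ratio of nuclei in treated wells to nuclei in vehicle wells, taken as the median of duplicate plates.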

How did the relative viability turn out when SK-MES-1 was run?
Its relative viability is 1.1.

Which relative viability does the source give for H3255 here?
The relative viability was 0.575.

For COR-L23, which relative viability is on record?
The relative viability was 0.77.

For COR-L 105, which relative viability is on record?
The relative viability was 0.757.

With IA-LM as the cell line, how does the relative viability read?
Its relative viability is 0.798.

Which relative viability does the source give for LOU-NH91 here?
Its relative viability is 0.835.

For ChaGo-K-1, which relative viability is on record?
Its relative viability is 1.17.

Which relative viability does the source give for NCI-H2170 here?
Its relative viability is 0.549.

For NCI-H3122, which relative viability is on record?
The relative viability was 1.03.

Which relative viability does the source give for HOP-62 here?
Its relative viability is 1.05.

With HCC-44 as the cell line, how does the relative viability read?
The relative viability was 0.907.

With A549 as the cell line, how does the relative viability read?
The relative viability was 1.23.

With LU99A as the cell line, how does the relative viability read?
The relative viability was 0.767.

Which relative viability does the source give for BEN here?
The relative viability was 0.0705.

For NCI-H727, which relative viability is on record?
The relative viability was 0.469.

For NCI-H1299, which relative viability is on record?
Its relative viability is 1.04.

NCI-H1792 was tested. Which relative viability did it give?
The relative viability was 0.716.

Same assay, conditions: first compound 3.162 µM

NCI-H838 was tested. Which relative viability did it give?
The relative viability was 1.16.

NCI-H1650 was tested. Which relative viability did it give?
Its relative viability is 1.31.

Which relative viability does the source give for EBC-1 here?
Its relative viability is 0.528.

How did the relative viability turn out when NCI-H1703 was run?
The relative viability was 1.22.

Which relative viability does the source give for NCI-H2009 here?
Its relative viability is 1.26.

NCI-H1993 was tested. Which relative viability did it give?
Its relative viability is 0.96.

Which relative viability does the source give for PC-14 here?
Its relative viability is 1.02.

For NCI-H596, which relative viability is on record?
Its relative viability is 0.964.

NCI-H2228 was tested. Which relative viability did it give?
The relative viability was 0.698.

How did the relative viability turn out when EMC-BAC-2 was run?
The relative viability was 1.17.

For NCI-H2087, which relative viability is on record?
Its relative viability is 1.08.

Calu-6 was tested. Which relative viability did it give?
Its relative viability is 0.922.

Which relative viability does the source give for HCC-366 here?
Its relative viability is 1.05.

With NCI-H1666 as the cell line, how does the relative viability read?
Its relative viability is 1.12.

With NCI-H647 as the cell line, how does the relative viability read?
Its relative viability is 1.3.

For LK-2, which relative viability is on record?
Its relative viability is 0.85.

NCI-H2126 was tested. Which relative viability did it give?
The relative viability was 0.9.

With SK-MES-1 as the cell line, how does the relative viability read?
The relative viability was 1.25.

H3255 was tested. Which relative viability did it give?
Its relative viability is 0.603.

How did the relative viability turn out when COR-L23 was run?
The relative viability was 1.05.

For COR-L 105, which relative viability is on record?
The relative viability was 0.962.

How did the relative viability turn out when IA-LM was run?
Its relative viability is 0.723.

How did the relative viability turn out when LOU-NH91 was run?
Its relative viability is 0.611.

How did the relative viability turn out when ChaGo-K-1 was run?
Its relative viability is 0.99.

With NCI-H2170 as the cell line, how does the relative viability read?
Its relative viability is 0.533.

Which relative viability does the source give for NCI-H3122 here?
Its relative viability is 0.974.

With HOP-62 as the cell line, how does the relative viability read?
Its relative viability is 0.961.

How did the relative viability turn out when HCC-44 was run?
The relative viability was 0.967.

Which relative viability does the source give for A549 here?
Its relative viability is 1.22.

How did the relative viability turn out when LU99A was run?
The relative viability was 0.696.

BEN was tested. Which relative viability did it give?
The relative viability was 0.0702.

For NCI-H727, which relative viability is on record?
The relative viability was 0.526.

With NCI-H1299 as the cell line, how does the relative viability read?
Its relative viability is 1.07.

NCI-H1792 was tested. Which relative viability did it give?
The relative viability was 0.719.

Same assay, conditions: first compound 10 µM

For NCI-H838, which relative viability is on record?
Its relative viability is 1.3.

For NCI-H1650, which relative viability is on record?
The relative viability was 1.42.

Which relative viability does the source give for EBC-1 here?
Its relative viability is 0.433.

NCI-H1703 was tested. Which relative viability did it give?
Its relative viability is 1.42.

NCI-H2009 was tested. Which relative viability did it give?
The relative viability was 1.22.

How did the relative viability turn out when NCI-H1993 was run?
Its relative viability is 0.925.

PC-14 was tested. Which relative viability did it give?
The relative viability was 1.07.

With NCI-H596 as the cell line, how does the relative viability read?
Its relative viability is 1.1.

Which relative viability does the source give for NCI-H2228 here?
The relative viability was 0.864.

Which relative viability does the source give for EMC-BAC-2 here?
Its relative viability is 1.31.

Which relative viability does the source give for NCI-H2087 here?
Its relative viability is 0.987.

With Calu-6 as the cell line, how does the relative viability read?
The relative viability was 0.779.

For HCC-366, which relative viability is on record?
Its relative viability is 1.14.

Which relative viability does the source give for NCI-H1666 here?
The relative viability was 1.03.

How did the relative viability turn out when NCI-H647 was run?
Its relative viability is 1.49.

How did the relative viability turn out when LK-2 was run?
Its relative viability is 0.818.

NCI-H2126 was tested. Which relative viability did it give?
The relative viability was 0.906.

Which relative viability does the source give for SK-MES-1 here?
The relative viability was 1.17.

With H3255 as the cell line, how does the relative viability read?
Its relative viability is 0.512.

How did the relative viability turn out when COR-L23 was run?
The relative viability was 1.12.

For COR-L 105, which relative viability is on record?
Its relative viability is 0.689.

Which relative viability does the source give for IA-LM here?
The relative viability was 0.654.

How did the relative viability turn out when LOU-NH91 was run?
The relative viability was 0.759.

ChaGo-K-1 was tested. Which relative viability did it give?
The relative viability was 0.963.

Which relative viability does the source give for NCI-H2170 here?
Its relative viability is 0.577.

How did the relative viability turn out when NCI-H3122 was run?
Its relative viability is 1.08.

How did the relative viability turn out when HOP-62 was run?
The relative viability was 1.12.

Which relative viability does the source give for HCC-44 here?
Its relative viability is 1.08.

Which relative viability does the source give for A549 here?
Its relative viability is 1.36.

LU99A was tested. Which relative viability did it give?
Its relative viability is 0.834.

How did the relative viability turn out when BEN was run?
The relative viability was 0.072.

How did the relative viability turn out when NCI-H727 was run?
Its relative viability is 0.401.

With NCI-H1299 as the cell line, how does the relative viability read?
The relative viability was 1.03.

NCI-H1792 was tested. Which relative viability did it give?
The relative viability was 0.787.

Same assay, conditions: first compound 31.62 µM

For NCI-H838, which relative viability is on record?
Its relative viability is 1.17.

Which relative viability does the source give for NCI-H1650 here?
Its relative viability is 1.47.

Which relative viability does the source give for EBC-1 here?
Its relative viability is 0.453.

How did the relative viability turn out when NCI-H1703 was run?
Its relative viability is 1.34.

How did the relative viability turn out when NCI-H2009 was run?
Its relative viability is 1.06.

NCI-H1993 was tested. Which relative viability did it give?
Its relative viability is 1.09.

With PC-14 as the cell line, how does the relative viability read?
The relative viability was 1.02.

For NCI-H596, which relative viability is on record?
Its relative viability is 0.877.

For NCI-H2228, which relative viability is on record?
Its relative viability is 0.469.

With EMC-BAC-2 as the cell line, how does the relative viability read?
The relative viability was 1.15.

For NCI-H2087, which relative viability is on record?
The relative viability was 0.966.

How did the relative viability turn out when Calu-6 was run?
Its relative viability is 0.792.

HCC-366 was tested. Which relative viability did it give?
The relative viability was 1.04.

How did the relative viability turn out when NCI-H1666 was run?
The relative viability was 1.01.

NCI-H647 was tested. Which relative viability did it give?
The relative viability was 1.18.

For LK-2, which relative viability is on record?
Its relative viability is 0.888.

NCI-H2126 was tested. Which relative viability did it give?
The relative viability was 0.856.

Which relative viability does the source give for SK-MES-1 here?
The relative viability was 1.29.

How did the relative viability turn out when H3255 was run?
The relative viability was 0.504.

How did the relative viability turn out when COR-L23 was run?
Its relative viability is 0.851.

For COR-L 105, which relative viability is on record?
Its relative viability is 0.688.

For IA-LM, which relative viability is on record?
The relative viability was 0.763.

Which relative viability does the source give for LOU-NH91 here?
The relative viability was 0.84.

With ChaGo-K-1 as the cell line, how does the relative viability read?
Its relative viability is 0.96.

NCI-H2170 was tested. Which relative viability did it give?
The relative viability was 0.541.

With NCI-H3122 as the cell line, how does the relative viability read?
Its relative viability is 1.01.

For HOP-62, which relative viability is on record?
Its relative viability is 1.08.

Which relative viability does the source give for HCC-44 here?
Its relative viability is 0.96.

How did the relative viability turn out when A549 was run?
The relative viability was 1.22.

For LU99A, which relative viability is on record?
The relative viability was 0.558.

For BEN, which relative viability is on record?
The relative viability was 0.0664.

How did the relative viability turn out when NCI-H727 was run?
The relative viability was 0.425.

With NCI-H1299 as the cell line, how does the relative viability read?
The relative viability was 1.03.

NCI-H1792 was tested. Which relative viability did it give?
Its relative viability is 0.486.

Same assay, conditions: first compound 100 µM

NCI-H838 was tested. Which relative viability did it give?
Its relative viability is 1.28.

How did the relative viability turn out when NCI-H1650 was run?
Its relative viability is 1.19.

How did the relative viability turn out when EBC-1 was run?
Its relative viability is 0.358.

With NCI-H1703 as the cell line, how does the relative viability read?
Its relative viability is 1.16.

With NCI-H2009 as the cell line, how does the relative viability read?
The relative viability was 0.899.

How did the relative viability turn out when NCI-H1993 was run?
Its relative viability is 0.901.

With PC-14 as the cell line, how does the relative viability read?
The relative viability was 1.01.

With NCI-H596 as the cell line, how does the relative viability read?
The relative viability was 1.07.

With NCI-H2228 as the cell line, how does the relative viability read?
Its relative viability is 0.63.

EMC-BAC-2 was tested. Which relative viability did it give?
The relative viability was 1.25.

How did the relative viability turn out when NCI-H2087 was run?
Its relative viability is 1.02.

With Calu-6 as the cell line, how does the relative viability read?
The relative viability was 0.74.

How did the relative viability turn out when HCC-366 was run?
The relative viability was 1.03.

Which relative viability does the source give for NCI-H1666 here?
Its relative viability is 0.754.

For NCI-H647, which relative viability is on record?
Its relative viability is 1.19.

LK-2 was tested. Which relative viability did it give?
The relative viability was 0.772.

NCI-H2126 was tested. Which relative viability did it give?
The relative viability was 0.873.

How did the relative viability turn out when SK-MES-1 was run?
The relative viability was 1.26.

Which relative viability does the source give for H3255 here?
Its relative viability is 0.512.

With COR-L23 as the cell line, how does the relative viability read?
Its relative viability is 0.401.

For COR-L 105, which relative viability is on record?
The relative viability was 0.549.

For IA-LM, which relative viability is on record?
The relative viability was 0.818.

For LOU-NH91, which relative viability is on record?
The relative viability was 0.783.

Which relative viability does the source give for ChaGo-K-1 here?
The relative viability was 0.879.

How did the relative viability turn out when NCI-H2170 was run?
The relative viability was 0.57.

Which relative viability does the source give for NCI-H3122 here?
The relative viability was 1.03.

Which relative viability does the source give for HOP-62 here?
Its relative viability is 0.899.

Which relative viability does the source give for HCC-44 here?
Its relative viability is 1.04.

With A549 as the cell line, how does the relative viability read?
The relative viability was 1.33.

LU99A was tested. Which relative viability did it give?
The relative viability was 0.411.

How did the relative viability turn out when BEN was run?
The relative viability was 0.0566.

For NCI-H727, which relative viability is on record?
The relative viability was 0.509.

NCI-H1299 was tested. Which relative viability did it give?
Its relative viability is 1.02.

With NCI-H1792 as the cell line, how does the relative viability read?
The relative viability was 0.542.
